The values that follow come from publication PMC8296573, “Synthesis and Biological Evaluation of Fingolimod Derivatives as Antibacterial Agents” (ACS Omega, 2021).

Data set [1] can be described thus: Cytotoxicity, resazurin staining assay. Type of data set: cell-based, human. To be noted: human, 24 h incubation. As to the method:
The cytotoxicity of the compounds was assessed on the three different human cell lines, A549, HEp-2, and HL-60, using the redox-based resazurin staining assay. The cells were seeded in clear 96-well plates at a density of 1 × 10^4 cells per well in a volume of 200 μL per well. The adherent cells were let to attach for 24 h before changing the media and adding the compounds (final concentration of 0.25% DMSO). HL-60 were counted and added to the plates at a density of 1 × 10^4 cells per well in a volume of 200 μL directly with the compounds. Untreated cells were used as negative controls, and cells treated with 1% TritonX-100 (Sigma-Aldrich, St. Louis, MO) were used as positive controls for cytotoxicity. The cells were incubated with the compounds for 24 h.
For the resazurin assay, the media was first removed, and the adherent cells were washed once with PBS. Then, 200 μL of 20 μM resazurin was added per well and cells were incubated for two more hours before the measurement of fluorescence, as mentioned earlier. For HL-60, 10 μL of 400 μM resazurin was added directly to the wells and the cells were incubated for an additional 4 h before the measurement of fluorescence.
A general note: Alamar Blue is a resazurin reagent that responds to reducing activity.

For a further data set, the system named is S. aureus ATCC 12598. The data set can be described thus: Antibacterial activity, pre-exposure. The data set is classed as cell-based, Staphylococcus aureus. The settings on record: for Average inhibition %, biofilms viability / Average inhibition %, planktonic cells viability / inhibition at 5 µM / inhibition at 10 µM / inhibition at 15 µM / inhibition at 25 µM: S. aureus ATCC 12598, pre-exposure, ± SD; for inhibition at 5 µM / inhibition at 10 µM / inhibition at 15 µM / inhibition at 25 µM / MIC: Staphylococcus aureus, ATCC12598; for MIC: pre-exposure, 18 h, read-out: MIC S. aureus ATCC 12598. As to the method:
(§1) The antimicrobial activity was assessed in a similar way for the initial screening and the dose–response evaluation against different bacterial strains. With the exception of the post-exposure experiment, the compounds were added to the wells along with the bacteria to test the ability of compounds to prevent bacterial growth and biofilm formation (pre-exposure). The compounds were diluted in DMSO and plated directly in 96-well plates before adding the bacterial culture, and plates were incubated for 18 h under aerobic conditions at 37 °C with shaking (220 rpm). The antibacterial activity of the compounds was assessed on planktonic cells and biofilms separately using two different measurements for each: optical density (turbidity) and resazurin reduction (viability) on planktonic cells and resazurin followed by a crystal violet staining assay (total biomass) on biofilms, as described in the following sections.
(§2) The resazurin staining was performed according to the protocol previously optimized with a few modifications.[46] Briefly, the planktonic solution was first transferred into a new 96-well plate and the OD of the planktonic solution was measured using a Varioskan LUX Multimode microplate reader (Thermo Scientific, Vantaa, Finland). Then, 10 μL of a 400 μM resazurin (R7017, Sigma-Aldrich, St. Louis, MO) diluted in phosphate-buffered saline (PBS) (Thermo Fisher Scientific, MA) was added to the wells (for a final resazurin concentration of 20 μM). The plate was incubated in the dark with shaking (220 rpm) for about 3–10 min at room temperature with S. aureus and A. baumannii (until the bacteria controls turned pink) or for 20 min at 37 °C with P. aeruginosa. Fluorescence was measured at λex = 560 nm and λem = 590 nm using the top optics of the Varioskan LUX Multimode microplate reader. The planktonic plate was then discarded. The original challenge plate containing the biofilms was washed once with PBS, and 200 μL of a 20 μM resazurin solution was added to the wells. The plate was incubated in the dark at 37 °C with shaking (220 rpm) for 30 min with S. aureus, 60 min with A. baumannii, and 90 min with P. aeruginosa. Fluorescence was measured as described for the planktonic solution. The biofilms were next treated with crystal violet staining.
(§3) After removing the resazurin solution from the plate, biofilms were fixed with ethanol 100% for 15 min at room temperature. Ethanol was then removed, and the biofilms were left to air-dry completely at RT. Crystal violet, diluted to 1:100 in deionized water from the 2.3% commercial solution (HT90132, Sigma-Aldrich, St. Louis, MO), was added to the wells and, after a 5 min incubation with the dye, the biofilms were washed twice with deionized water and left to air-dry for about 10 min. The dye was solubilized in ethanol 100% for 1 h, and absorbance was measured at 595 nm using a Multiskan Sky microplate spectrophotometer (Thermo Scientific, Vantaa, Finland).

Another data set has as its system S. aureus P2. The data set can be described thus: Antibacterial activity, pre-exposure. Type of data set: cell-based, Staphylococcus aureus. The settings on record: for Average inhibition %, biofilms viability / Average inhibition %, planktonic cells viability / inhibition at 5 µM / inhibition at 10 µM / inhibition at 15 µM / inhibition at 25 µM: S. aureus P2, pre-exposure, ± SD; for inhibition at 5 µM / inhibition at 10 µM / inhibition at 15 µM / inhibition at 25 µM / MIC: Staphylococcus aureus; for MIC: P2, pre-exposure, 18 h. As to the method: as §1, §2, §3

Where [2] appears, read: 5 µM, read-out: Average inhibition %, biofilms biomass.
Setting [3] is: 5 µM, read-out: Average inhibition %, planktonic cells turbidity.
Setting [4] is: 10 µM, read-out: Average inhibition %, biofilms biomass.
[5] abbreviates: 10 µM, read-out: Average inhibition %, planktonic cells turbidity.
Where [6] appears, read: 15 µM, read-out: Average inhibition %, biofilms biomass.
[7] abbreviates: 15 µM, read-out: Average inhibition %, planktonic cells turbidity.
Where [8] appears, read: 25 µM, read-out: Average inhibition %, biofilms biomass.
Setting [9] is: 25 µM, read-out: Average inhibition %, planktonic cells turbidity.

In brackets after ≈: the same amount, converted by molar mass. Where two headings read alike, the source gives them in different places.

Take `CCCCCCCCCCc1ccc(CCC(N)(CO)CO)nc1` [Compound 62, 2-Amino-2-[2-(5-decylpyridin-2-yl)ethyl]propane-1,3-diol]: the CC50 at 24 h turned out to be 27.6 ± 6.4 µM in data set [1] (A549 cells), 30.9 ± 6.2 µM in data set [1] (HEp-2 cells) and 3.6 ± 0.4 µM in data set [1] (HL-60 cells).

With `CCCCCCCCCCc1ccc2nc(CCC(N)(CO)CO)ccc2c1` [Compound 81, 2-Amino-2-[2-(6-decylquinolin-2-yl)ethyl]propane-1,3-diol], the “Average inhibition %, biofilms viability” value with S. aureus ATCC 12598 (5 µM) is listed as 15.6 ± 9.7%; in the data set on S. aureus ATCC 12598 (10 µM), 99.4 ± 0%; in the data set with S. aureus ATCC 12598 (15 µM), 99.7 ± 0.1%; with S. aureus ATCC 12598 (25 µM), 99.7 ± 0.1%; in the data set with S. aureus P2 (5 µM), 37.3 ± 3.3%; with S. aureus P2 (10 µM) it was 99.6 ± 0.1%. Moreover, the “Average inhibition %, biofilms viability” value with S. aureus P2 (15 µM) and in the data set with S. aureus P2 (25 µM) was 99.6 ± 0% each time. Moreover, the “Average inhibition %, planktonic cells viability” value in the data set on S. aureus ATCC 12598 (5 µM) is 4.2 ± 7.3%; in the data set on S. aureus ATCC 12598 (10 µM), 99.7 ± 0%; in the data set on S. aureus ATCC 12598 (15 µM), 99.8 ± 0.1%; in the data set with S. aureus ATCC 12598 (25 µM) it was 99.6 ± 0.1%; in the data set on S. aureus P2 (5 µM), 42.9 ± 19.7%; with S. aureus P2 (10 µM), 99.6 ± 0.2%. Also, the “Average inhibition %, planktonic cells viability” value in the data set on S. aureus P2 (15 µM) is recorded as 99.6 ± 0.1%; in the data set on S. aureus P2 (25 µM) it was 99.6 ± 0.2%. Also, the inhibition at 5 µM with S. aureus ATCC 12598 (setting [2]) is 19.1 ± 26.4%; with S. aureus ATCC 12598 (setting [3]), 2.1 ± 3.7%; in the data set with S. aureus P2 (setting [2]) it was 48.4 ± 15.7%; in the data set with S. aureus P2 (setting [3]) it was 0%. Besides, the inhibition at 10 µM with S. aureus ATCC 12598 (setting [4]) worked out at 96 ± 0.6%; in the data set on S. aureus ATCC 12598 (setting [5]), 99.8 ± 0.1%; in the data set on S. aureus P2 (setting [4]), 96.6 ± 0.4%; in the data set on S. aureus P2 (setting [5]), 99.8 ± 0.1%. For the same compound, the inhibition at 15 µM with S. aureus ATCC 12598 (setting [6]) amounted to 93.5 ± 1.8%; with S. aureus ATCC 12598 (setting [7]), 99.7 ± 0.1%; in the data set on S. aureus P2 (setting [6]) it was 94.5 ± 0.6%; in the data set on S. aureus P2 (setting [7]), 99.7 ± 0.1%. In addition, the inhibition at 25 µM in the data set on S. aureus ATCC 12598 (setting [8]) is 88.7 ± 2%; in the data set with S. aureus ATCC 12598 (setting [9]), 99.3 ± 0.2%; in the data set on S. aureus P2 (setting [8]) it was 89.1 ± 0.6%; in the data set with S. aureus P2 (setting [9]), 99.2 ± 0.2%.

Take `CCCCCCCCCCc1ccc2nc(CC(N)(CO)CO)ccc2c1` [Compound 83, 2-Amino-2-[(6-decylquinolin-2-yl)methyl]propane-1,3-diol]: the MIC in the data set on S. aureus ATCC 12598 and against S. aureus P2 was 10 µM (≈ 3.73 µg/mL) throughout.

Take `CCCCCCCCc1ccc2nc(CCC(N)(CO)CO)ccc2c1` [Compound 80, 2-Amino-2-[2-(6-octylquinolin-2-yl)ethyl]propane-1,3-diol]: the “Average inhibition %, biofilms viability” value is 24.6 ± 6.8% with S. aureus ATCC 12598 (5 µM); 99.2 ± 0.3% with S. aureus ATCC 12598 (10 µM); 99.5 ± 0.1% with S. aureus ATCC 12598 (15 µM); 99.5 ± 0.2% in the data set with S. aureus ATCC 12598 (25 µM); 45.2 ± 2.1% with S. aureus P2 (5 µM); 99.5 ± 0.1% with S. aureus P2 (10 µM). Also, the “Average inhibition %, biofilms viability” value in the data set on S. aureus P2 (15 µM) and in the data set with S. aureus P2 (25 µM) was 99.5 ± 0% in each case. The “Average inhibition %, planktonic cells viability” value in the data set on S. aureus ATCC 12598 (5 µM) came out at 7.3 ± 12.6%; in the data set on S. aureus ATCC 12598 (10 µM), 99.7 ± 0%; in the data set on S. aureus ATCC 12598 (15 µM) it was 99.6 ± 0%; in the data set with S. aureus ATCC 12598 (25 µM), 99.6 ± 0%; with S. aureus P2 (5 µM), 20.6 ± 21.6%; with S. aureus P2 (10 µM) it was 99.7 ± 0.2%. Also, the entries for the “Average inhibition %, planktonic cells viability” value with S. aureus P2 (15 µM) and with S. aureus P2 (25 µM) were 99.6 ± 0.1% and 99.5 ± 0.1%, respectively. Also, the inhibition at 5 µM with S. aureus ATCC 12598 (setting [2]) is 34.3 ± 18.8%; in the data set on S. aureus ATCC 12598 (setting [3]) it was 22.7 ± 5.4%; in the data set on S. aureus P2 (setting [2]), 57.3 ± 10.2%; in the data set on S. aureus P2 (setting [3]), 3.3 ± 5.4%. Besides, the inhibition at 10 µM in the data set on S. aureus ATCC 12598 (setting [4]) came out at 96.5 ± 1%; with S. aureus ATCC 12598 (setting [5]), 99.6%; in the data set on S. aureus P2 (setting [4]), 95.4 ± 2.9%; with S. aureus P2 (setting [5]), 99.6 ± 0.1%. In addition, the inhibition at 15 µM in the data set with S. aureus ATCC 12598 (setting [6]) came out at 93.4 ± 1.2%; with S. aureus ATCC 12598 (setting [7]), 99.5 ± 0.1%; in the data set with S. aureus P2 (setting [6]), 95.3 ± 0.8%; in the data set with S. aureus P2 (setting [7]), 99.3%. Moreover, the inhibition at 25 µM came to 89.4 ± 0.6% in the data set on S. aureus ATCC 12598 (setting [8]), 98.9 ± 0.3% in the data set with S. aureus ATCC 12598 (setting [9]), 90.6 ± 1% with S. aureus P2 (setting [8]) and 98.8 ± 0.2% in the data set on S. aureus P2 (setting [9]). For the same compound, the MIC in the data set with S. aureus ATCC 12598 and with S. aureus P2 was 10 µM (≈ 3.59 µg/mL) throughout.

In general, CC50 refers to the concentration that lowers cell viability or growth by half. Higher therefore signals lower toxicity to the cells. The term inhibition denotes the percentage by which the read-out fell short of the control. Broadly, the MIC is the least concentration at which growth counts as inhibited.
